Measurements reported in publication PMC5410048, “A retro-inverso cell-penetrating peptide for siRNA delivery” (Journal of Nanobiotechnology, 2017).
Non-standard residues stand in square brackets, D forms with d. Residues, ends and D or L forms follow the SMILES beside them.

Assays:
[1] = not given; remark: listed apart in the source
[2] = not given; remark: listed apart in the source
[3] = not given; remark: listed apart in the source

| Compound | Mean size (nm) at 0 h, Nb (%) [nm] | Tryptophan fluorescence emission maximum with siRNA [1] [nm] | Tryptophan fluorescence emission maximum, free peptide [2] [nm] | Blue shift of tryptophan fluorescence with excess liposomes [3] [nm] |
| --- | --- | --- | --- | --- |
| CC(C)C[C@@H](NC(=O)CN)C(=O)N[C@H](Cc1c[nH]c2ccccc12)C(=O)N[C@H](CCCNC(=N)N)C(=O)N[C@H](C)C(=O)N[C@H](CC(C)C)C(=O)N[C@H](Cc1c[nH]c2ccccc12)C(=O)N[C@H](CCCNC(=N)N)C(=O)N[C@H](CC(C)C)C(=O)N[C@H](CC(C)C)C(=O)N[C@H](CCCNC(=N)N)C(=O)N[C@H](CO)C(=O)N[C@H](CC(C)C)C(=O)N[C@H](Cc1c[nH]c2ccccc12)C(=O)N[C@H](CCCNC(=N)N)C(=O)N[C@H](CC(C)C)C(=O)N[C@H](CC(C)C)C(=O)N[C@H](Cc1c[nH]c2ccccc12)C(=O)N[C@H](CCCCN)C(=O)O (H-G[dL][dW][dR][dA][dL][dW][dR][dL][dL][dR][dS][dL][dW][dR][dL][dL][dW][dK]-OH) | 30 | – | – | – |
| H-GLWRALWRLLRSLWRLLWK-OH | – | 340 | 348 | – |
| CC(C)C[C@@H](NC(=O)[C@@H](Cc1c[nH]c2ccccc12)NC(=O)[C@@H](CCCNC(=N)N)NC(=O)[C@@H](C)NC(=O)[C@@H](CC(C)C)NC(=O)[C@@H](Cc1c[nH]c2ccccc12)NC(=O)[C@@H](CCCNC(=N)N)NC(=O)[C@@H](CC(C)C)NC(=O)[C@@H](CC(C)C)NC(=O)[C@@H](CCCNC(=N)N)NC(=O)[C@@H](CO)NC(=O)[C@@H](CC(C)C)NC(=O)[C@@H](Cc1c[nH]c2ccccc12)NC(=O)[C@@H](CCCNC(=N)N)NC(=O)[C@@H](CC(C)C)NC(=O)[C@@H](CC(C)C)NC(=O)[C@@H](Cc1c[nH]c2ccccc12)NC(=O)[C@H](N)CCCCN)C(=O)NCC(=O)O (H-[dK][dW][dL][dL][dR][dW][dL][dS][dR][dL][dL][dR][dW][dL][dA][dR][dW][dL]G-OH) | – | 340 | 345 | 10 |
